#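 Assay format: 96-well plates, 48-hour exposure. GI50 is the concentration that inhibits growth by half. At the TGI there is no net growth.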
# How the values were obtained:
# Assay in all cases: growth of human tumour cells (NCI), 48 h
# HCC-2998 colon = test system: HCC-2998 colon
# SNB-75 CNS = test system: SNB-75 CNS
# HCT-15 colon = test system: HCT-15 colon
# RPMI-8226 leukemia = test system: RPMI-8226 leukemia
# A549 NSCLC = test system: A549 NSCLC
# SF-539 CNS = test system: SF-539 CNS
# CAKI-1 renal = test system: CAKI-1 renal
# SF-268 CNS = test system: SF-268 CNS
# IGROV1 ovarian = test system: IGROV1 ovarian
# HL-60(TB) leukemia = test system: HL-60(TB) leukemia
# NCI-H460 lung = test system: NCI-H460 lung
# TK-10 renal = test system: TK-10 renal
# MALME-3M melanoma = test system: MALME-3M melanoma
# NCI-H522 lung = test system: NCI-H522 lung
# NCI/ADR-RES ovarian = test system: NCI/ADR-RES ovarian
# RXF 393 renal = test system: RXF 393 renal
# UACC-62 melanoma = test system: UACC-62 melanoma
# HT29 colon = test system: HT29 colon
# NCI-H23 lung = test system: NCI-H23 lung
# SW-620 colon = test system: SW-620 colon
# DU-145 prostate = test system: DU-145 prostate
# OVCAR-3 ovarian = test system: OVCAR-3 ovarian
# MDA-MB-231 breast = test system: MDA-MB-231 breast
# UO-31 renal = test system: UO-31 renal
# HCT-116 colon = test system: HCT-116 colon
# SK-OV-3 ovarian = test system: SK-OV-3 ovarian
# SNB-19 CNS = test system: SNB-19 CNS
# A498 renal = test system: A498 renal
# 786-0 renal = test system: 786-0 renal
# HOP-62 NSCLC = test system: HOP-62 NSCLC
# U251 CNS = test system: U251 CNS
# CCRF-CEM leukemia = test system: CCRF-CEM leukemia
# SF-295 CNS = test system: SF-295 CNS
# SK-MEL-2 melanoma = test system: SK-MEL-2 melanoma
# SK-MEL-28 melanoma = test system: SK-MEL-28 melanoma
# UACC-257 melanoma = test system: UACC-257 melanoma
# HS 578T breast = test system: HS 578T breast
# SN12C renal = test system: SN12C renal
# OVCAR-4 ovarian = test system: OVCAR-4 ovarian
# M14 melanoma = test system: M14 melanoma
# NCI-H226 lung = test system: NCI-H226 lung
# KM12 colon = test system: KM12 colon
# ACHN renal = test system: ACHN renal
# BT-549 breast = test system: BT-549 breast
# SK-MEL-5 melanoma = test system: SK-MEL-5 melanoma
# OVCAR-5 ovarian = test system: OVCAR-5 ovarian
# MDA-MB-435 = test system: MDA-MB-435
# EKVX NSCLC = test system: EKVX NSCLC
# HOP-92 NSCLC = test system: HOP-92 NSCLC
# PC-3 prostate = test system: PC-3 prostate
smiles,measurement,setting,value
Cn1cc(-c2csc(-c3c[nH]c4ccccc34)n2)c2cnccc21,GI50,HCC-2998 colon,2.01 µM
same,TGI,HCC-2998 colon,3.61 µM
same,GI50,SNB-75 CNS,12.9 µM
same,TGI,SNB-75 CNS,26.2 µM
same,GI50,HCT-15 colon,1.79 µM
same,TGI,HCT-15 colon,3.6 µM
same,GI50,RPMI-8226 leukemia,2.14 µM
same,TGI,RPMI-8226 leukemia,5 µM
same,GI50,A549 NSCLC,2.47 µM
same,TGI,A549 NSCLC,5.88 µM
same,GI50,SF-539 CNS,1.79 µM
same,TGI,SF-539 CNS,3.29 µM
same,GI50,CAKI-1 renal,2.08 µM
same,TGI,CAKI-1 renal,4.71 µM
same,GI50,SF-268 CNS,1.97 µM
same,TGI,SF-268 CNS,3.93 µM
same,GI50,IGROV1 ovarian,1.73 µM
same,TGI,IGROV1 ovarian,3.55 µM
same,GI50,HL-60(TB) leukemia,2.17 µM
same,TGI,HL-60(TB) leukemia,4.77 µM
same,GI50,NCI-H460 lung,1.85 µM
same,TGI,NCI-H460 lung,3.61 µM
same,GI50,TK-10 renal,2.74 µM
same,TGI,TK-10 renal,5.1 µM
same,GI50,MALME-3M melanoma,1.94 µM
same,TGI,MALME-3M melanoma,3.62 µM
same,GI50,NCI-H522 lung,2.02 µM
same,TGI,NCI-H522 lung,3.91 µM
same,GI50,NCI/ADR-RES ovarian,2.4 µM
same,TGI,NCI/ADR-RES ovarian,5.44 µM
same,GI50,RXF 393 renal,1.63 µM
same,TGI,RXF 393 renal,3.11 µM
same,GI50,UACC-62 melanoma,1.82 µM
same,TGI,UACC-62 melanoma,3.32 µM
same,GI50,HT29 colon,2.01 µM
same,TGI,HT29 colon,4.26 µM
same,GI50,NCI-H23 lung,1.77 µM
same,TGI,NCI-H23 lung,3.97 µM
same,GI50,SW-620 colon,1.98 µM
same,TGI,SW-620 colon,3.69 µM
same,GI50,DU-145 prostate,2.24 µM
same,TGI,DU-145 prostate,5.65 µM
same,GI50,OVCAR-3 ovarian,1.96 µM
same,TGI,OVCAR-3 ovarian,3.56 µM
same,GI50,MDA-MB-231 breast,1.67 µM
same,TGI,MDA-MB-231 breast,3.22 µM
same,GI50,UO-31 renal,1.64 µM
same,TGI,UO-31 renal,3.35 µM
same,GI50,HCT-116 colon,1.73 µM
same,TGI,HCT-116 colon,3.22 µM
same,GI50,SK-OV-3 ovarian,1.9 µM
same,TGI,SK-OV-3 ovarian,3.72 µM
same,GI50,SNB-19 CNS,2.07 µM
same,TGI,SNB-19 CNS,4.11 µM
same,GI50,A498 renal,1.89 µM
same,TGI,A498 renal,3.58 µM
same,GI50,786-0 renal,1.9 µM
same,TGI,786-0 renal,3.44 µM
same,GI50,HOP-62 NSCLC,1.79 µM
same,TGI,HOP-62 NSCLC,3.45 µM
same,GI50,U251 CNS,1.95 µM
same,TGI,U251 CNS,3.72 µM
same,GI50,CCRF-CEM leukemia,2.4 µM
same,TGI,CCRF-CEM leukemia,6.42 µM
same,GI50,SF-295 CNS,1.81 µM
same,TGI,SF-295 CNS,3.37 µM
same,GI50,SK-MEL-2 melanoma,2.1 µM
same,TGI,SK-MEL-2 melanoma,3.81 µM
same,GI50,SK-MEL-28 melanoma,1.8 µM
same,TGI,SK-MEL-28 melanoma,3.25 µM
same,GI50,UACC-257 melanoma,2 µM
same,TGI,UACC-257 melanoma,3.72 µM
same,GI50,HS 578T breast,2.21 µM
same,TGI,HS 578T breast,4.72 µM
same,GI50,SN12C renal,1.74 µM
same,TGI,SN12C renal,3.31 µM
same,GI50,OVCAR-4 ovarian,2.3 µM
same,TGI,OVCAR-4 ovarian,6.52 µM
same,GI50,M14 melanoma,1.84 µM
same,TGI,M14 melanoma,3.46 µM
same,GI50,NCI-H226 lung,17.1 µM
same,TGI,NCI-H226 lung,45.4 µM
same,GI50,KM12 colon,1.65 µM
same,TGI,KM12 colon,3.41 µM
same,GI50,ACHN renal,1.93 µM
same,TGI,ACHN renal,3.77 µM
same,GI50,BT-549 breast,1.78 µM
same,TGI,BT-549 breast,3.59 µM
same,GI50,SK-MEL-5 melanoma,1.76 µM
same,TGI,SK-MEL-5 melanoma,3.18 µM
same,GI50,OVCAR-5 ovarian,2.62 µM
same,TGI,OVCAR-5 ovarian,5.52 µM
same,GI50,MDA-MB-435,1.87 µM
same,TGI,MDA-MB-435,3.43 µM
same,GI50,EKVX NSCLC,1.92 µM
same,TGI,EKVX NSCLC,4.61 µM
same,GI50,HOP-92 NSCLC,1.52 µM
same,TGI,HOP-92 NSCLC,3.28 µM
same,GI50,PC-3 prostate,2.4 µM
same,TGI,PC-3 prostate,6.31 µM

# From PubChem BioAssay (NCI)
